From PMC6789647, “α-Glucosidase Inhibitory Activity of Cycloartane-Type Triterpenes Isolated from Indonesian Stingless Bee Propolis and Their Structure–Activity Relationship” (Pharmaceuticals, 2019)

What was measured:
[1] = molecular target: α-glucosidase from Saccharomyces cerevisiae (Saccharomyces cerevisiae, UniProt P53341); assay: Inhibitory activity assay for yeast α-glucosidase (pNPG substrate); type: biochemical
Description: The inhibitory activity of α-glucosidase from Saccharomyces cerevisiae (Sigma-Aldrich, Tokyo, Japan) of the isolation compounds was determined using a previously reported procedure with modifications. p-Nitrophenyl α-glucopyranoside (pNPG) (Sigma-Aldrich, Tokyo, Japan) was used as a substrate. Other chemicals used were of analytical grade. […] Then, 40 µL of 3 mM pNPG solution was added, and the mixture was incubated at 37 °C for 20 min. The reaction was stopped by adding a solution of Na2CO3 (0.1 M, 200 µL), and the absorbance (at 405 nm) of the resulting solution was measured via an Epoch microplate reader (Biotech, Tokyo, Japan). All experiments were performed in three independent replicates. The inhibition of isolated compounds on α-glucosidase was calculated as follows:(2) Inhibition (%)=(1−A1/A0)×100 where A0 is the absorbance of the control, and A1 is the absorbance of the propolis samples. The IC50 values were determined as the half-maximal inhibitory concentration of the inhibitor (isolated compound) which provides 50% inhibition.

[2] = tested on: α-glucosidase from the rat small intestine; assay: Inhibitory activity assay for rat intestinal α-glucosidase; type: biochemical; details: for IC50: rat small intestine α-glucosidase, means ± SEs, n = 3, ND: not detected, isolated compounds tested at 0.1–10 µg/mL
Description: In a centrifuge tube at 4 °C, 200 mg of rat intestine acetone granules (Sigma-Aldrich, Tokyo, Japan) was placed in 8 mL of physiological saline (0.9 g of NaCl was dissolved in 100 mL pure water). The resulting suspension was homogenized with sonication equipment (Branson, Danbury, CT, USA) for 60 s (ultrasonic treatment cycles: 50, output control: 5) in an ice bath. The resulting homogenate was centrifuged (14,400× g, −21 °C for 20 min) with a high-speed refrigerated centrifuge (Himac CR21N, Hitachi Koki Co, Ltd., Tokyo, Japan). The resulting supernatant was used as an enzyme preparation, and stored at −30 °C until use. Then the measurement of inhibitory activity of isolated compounds against α-glucosidase from the rat small intestine followed the method used to measure the activity of yeast enzymes (S. cerevisiae). The concentration of the isolated compounds used is 0.1–10 µg/mL (0.2–23 µM).

[3] = DPPH free radical scavenging activity; details: means ± SEs, n = 3; for DPPH IC50 / IC50: isolated compounds
Description: The antioxidative activities of the fractions were assayed for the scavenging of 2,2-diphenyl-1-picrylhydrazyl (DPPH) (Sigma-Aldrich, Darmstadt, Germany). Free radicals were assayed using a previously reported method [48] with some modifications. The fractions of EEP, isolated compounds and Trolox (Sigma-Aldrich, Darmstadt, Germany) were dissolved in methanol to make a 50 ppm solution. Each of the test sample solutions (0, 20, 40, 60, 80, and 100 µL) were added into a mixture (0.9 mL) of 0.4 mM DPPH solution, 20% methanol aqueous solution, and 0.2 M MES (2-(N-morpholino) ethanesulfonic acid) (Dojindo, Wako Junyaku Kogyo Co., Ltd., Osaka, Japan) buffer solution (1:1:1). The resulting mixtures were shaken on a vortex mixer and allowed to stand for 20 min. The absorbance of the remaining DPPH was measured with a microplate reader (Biotech, Tokyo, Japan) at 520 nm. […] The inhibitory concentration that results in 50% scavenging of DPPH radicals (IC50) was estimated based on the plot of inhibition versus the final concentration of the propolis samples. The results are expressed in µg Trolox Equivalents (TE) per mL.

[4] = molecular target: α-glucosidase (Saccharomyces cerevisiae, UniProt P53341); assay: Determination of inhibitory type by kinetic analysis (Lineweaver–Burk, Dixon plots); type: biochemical; details: for Inhibition Mode: Lineweaver–Burk plot, inhibitor 0, 0.2, 2 µg/mL, p-NPG substrate; for Ki’: mixed inhibition, affinity for enzyme–substrate
α-glucosidase (Saccharomyces cerevisiae, UniProt P53341), sequence (P53341 whole entry): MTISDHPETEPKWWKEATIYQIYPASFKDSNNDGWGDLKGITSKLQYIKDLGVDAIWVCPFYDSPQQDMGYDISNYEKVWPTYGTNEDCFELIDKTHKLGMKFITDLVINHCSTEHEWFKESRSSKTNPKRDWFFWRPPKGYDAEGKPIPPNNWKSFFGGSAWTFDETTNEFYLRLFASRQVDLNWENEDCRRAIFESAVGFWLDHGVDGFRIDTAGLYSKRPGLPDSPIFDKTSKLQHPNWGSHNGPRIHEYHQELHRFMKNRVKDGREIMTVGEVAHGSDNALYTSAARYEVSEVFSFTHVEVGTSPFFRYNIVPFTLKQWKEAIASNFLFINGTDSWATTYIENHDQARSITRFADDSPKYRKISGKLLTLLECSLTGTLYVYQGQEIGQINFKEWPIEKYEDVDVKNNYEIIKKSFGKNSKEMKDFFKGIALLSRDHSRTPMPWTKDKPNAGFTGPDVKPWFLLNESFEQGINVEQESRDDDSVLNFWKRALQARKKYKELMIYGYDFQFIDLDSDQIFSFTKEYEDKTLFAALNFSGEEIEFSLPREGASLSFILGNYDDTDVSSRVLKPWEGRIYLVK
Description: Inhibitory mechanisms of isolated triterpenes against α-glucosidase at some concentrations (0, 0.2, and 2 µg/mL) were analyzed by the Lineweaver–Burk plot (Figure 2 and Figure 3).
The inhibition activity of isolated triterpenes against α-glucosidase was measured with different concentrations (0, 1, 2.5, 5, and 10 mM) of p-NPG as a substrate in the presence or absence of different concentrations (0, 0.2, and 2 µg/mL) of the compounds. The mode of inhibition was then determined by Lineweaver–Burk plot analysis, which was calculated using Michaelis–Menten kinetics. Inhibition constants (Ki) were determined by analysis of Dixon plots and plots of the Y-intercept of the Lineweaver–Burk plot versus the inhibitor [44, 49]. All data are expressed as means ± standard errors of triplicate determinations.

[5] = molecular target: α-glucosidase; details: cited from earlier work

α-glucosidase from Saccharomyces cerevisiae, sequence (P53341 whole entry): as above

Structure (SMILES) | inhibitory activity against α-glucosidase from the rat small intestine, in words [2] | DPPH IC50 [3] [µg/mL] | IC50 [3] [µM] | Inhibition Mode [4] | Ki’ [4] [µM] | other results
C[C@H]1O[C@H](O[C@H]2[C@H](O)[C@@H](O)[C@@H](O[C@H]3[C@H](O)[C@@H](O)C(O)O[C@@H]3CO)O[C@@H]2CO)[C@H](O)[C@@H](O)[C@@H]1N[C@H]1C=C(CO)[C@@H](O)[C@H](O)[C@H]1O (some centres unmarked) [Acarbose] | very high inhibitory activity |  |  |  |  | inhibitory activity against α-glucosidase from the yeast (S. cerevisiae), in words [1]: no activity at all; IC50 [2]: 209 ± 0.96 µM
C=C(CCC(C)C1CCC2(C)C3CCC4C(C)(C)C(=O)CCC45CC35CCC12C)C(C)C(=O)O (centres unmarked) [Ambonic acid (3), ambonic acid] |  | 42.45 ± 4.5 | 90.6 ± 9.6 | Mixed inhibition | 6.42 | Inhibition Mode ([4]; listed as 3): mixed-type inhibition
OCC(CO)N[C@H]1C[C@](O)(CO)[C@@H](O)[C@H](O)[C@H]1O [Voglibose] | very high inhibitory activity |  |  |  |  | IC50 [2]: 78.6 ± 1.27 µM
Cc1c(C)c2c(c(C)c1O)CCC(C)(C(=O)O)O2 (centres unmarked) [Trolox, reference compound] |  | 7.17 ± 0.13 | 28.6 ± 0.52 |  |  | Antioxidant Activity IC50 ([3]; DPPH, propolis fractions P1 and P2): 6.76 ± 0.395 µg/mL
C/C(=C\CC[C@@H](C)[C@H]1CC[C@@]2(C)[C@@H]3CC[C@H]4C(C)(C)[C@@H](O)CC[C@@]45C[C@@]35CC[C@]12C)C(=O)O [Mangiferolic acid (1), mangiferolic acid] |  | 12.38 ± 3.0 | 27.1 ± 6.57 | Uncompetitive |  | Inhibition Mode ([4]; listed as 1): uncompetitive inhibition
C=C(CC[C@@H](C)[C@H]1CC[C@@]2(C)[C@@H]3CC[C@H]4C(C)(C)C(=O)CC[C@@]45C[C@@]35CC[C@]12C)C(C)C [24-methylenecycloartenone] |  |  |  |  |  | IC50 ([5]; isolated from Schisandra chinensis, read-out: IC50 against α-glucosidase): 2.36 µM
C=C(CCC(C)C1CCC2(C)C3CCC4C(C)(C)C(O)CCC45CC35CCC12C)C(C)C(=O)O (centres unmarked) [Ambolic acid (5), ambolic acid] |  | 132.30 ± 13.9 | 281 ± 29.5 | Mixed inhibition | 4.58 | Inhibition Mode ([4]; listed as 5): mixed-type inhibition
Oc1cc(O)c2c(c1)O[C@H](c1ccc(O)c(O)c1)[C@H](O)C2 [(–)-Epicatechin] | no inhibitory activity |  |  |  |  | inhibitory activity against α-glucosidase from the yeast (S. cerevisiae), in words [1]: showed inhibitory activity; inhibitory value on α-glucosidase [5]: around 96%
CC(C)=CCC[C@@H](C)[C@H]1CC[C@@]2(C)[C@@H]3CC[C@H]4C(C)(C)[C@@H](O)CC[C@@]45C[C@@]35CC[C@]12C [Cycloartenol (2), cycloartenol] |  | 120.21 ± 11.2 | 282 ± 26.3 | Uncompetitive |  | Inhibition Mode ([4]; listed as 2): uncompetitive inhibition
C/C(=C\CC[C@@H](C)[C@H]1CC[C@@]2(C)[C@@H]3CC[C@H]4C(C)(C)C(=O)CC[C@@]45C[C@@]35CC[C@]12C)C(=O)O [Mangiferonic acid (4), mangiferonic acid] |  | 17.16 ± 2.98 | 37.7 ± 6.55 | Mixed inhibition | 3.23 | Inhibition Mode ([4]; listed as 4): mixed-type inhibition
